{
  "source": "patent US6680310B2",
  "about": "“Methods for preventing antipsychotic-induced weight gain” (Corcept Therapeutics, Inc., priority 2001, dated 2004)",
  "origin": "cited, not measured here",
  "details": "in one study (Kawai, supra)",
  "data": [
    {"smiles": "CC#C[C@]1(O)CC[C@H]2[C@@H]3CCC4=CC(=O)CCC4=C3[C@@H](c3ccc(N(C)C)cc3)C[C@@]21C", "note": "[Mifepristone, 17-beta-hydroxy-11-beta-(4-dimethyl-aminophenyl)-17-alpha(1-propynyl)-estra-4,9-dien-3-one]", "values": [
      {"measurement": "fraction of the daily dose excreted in the urine", "result": "less than 0.5%"}
    ]}
  ]
}
